Source: article PMC10174618, “Monoterpenoid aryl hydrocarbon receptor allosteric antagonists protect against ultraviolet skin damage in female mice” (Nature Communications, 2023)

How the values were obtained:
Assay in all cases: biochemical
Set-up in all cases: KINOMEscan scanMAX active site-directed competition binding assay, percent of control, 468 kinases
Settings in all cases: competition binding, percent of control
[1] = target: PHKG2 (Homo sapiens, UniProt P15735)
In short: (§1)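 Single-concentration screen (100 μM S-carvone) in a competition binding panel of 468 human kinases (KINOMEscan scanMAX); results given as percent of control, hit cutoff 35%.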

[2] = target: VRK2 (Homo sapiens, UniProt Q86Y07)
In short: as §1

[3] = target: CSNK1A1 (Homo sapiens, UniProt P48729)
In short: as §1

[4] = target: T1, MKK7 (Homo sapiens, UniProt O14733)
T1 construct: gene MAP2K7
In short: as §1

[5] = target: DAPK2 (Homo sapiens, UniProt Q9UIK4)
In short: as §1

[6] = target: T2, DCAMKL2 (Homo sapiens, UniProt Q8N568)
T2 construct: gene DCLK2
In short: as §1

[7] = target: TESK1 (Homo sapiens, UniProt Q15569)
In short: as §1

[8] = target: T3, LKB1 (Homo sapiens, UniProt Q15831)
T3 construct: gene STK11
In short: as §1

[9] = target: T4, HPK1 (Homo sapiens, UniProt Q92918)
T4 construct: gene MAP4K1
In short: as §1

[10] = target: CLK2 (Homo sapiens, UniProt P49760)
In short: as §1

[11] = target: RIPK2 (Homo sapiens, UniProt O43353)
In short: as §1

[12] = target: T5, RIPK5 (Homo sapiens, UniProt Q6XUX3)
T5 construct: gene DSTYK
In short: as §1

[13] = target: CSNK1G1 (Homo sapiens, UniProt Q9HCP0)
In short: as §1

[14] = target: T6, DCAMKL3 (Homo sapiens, UniProt Q9C098)
T6 construct: gene DCLK3
In short: as §1

[15] = target: MAP3K15 (Homo sapiens, UniProt Q6ZN16)
In short: as §1

[16] = target: WNK4 (Homo sapiens, UniProt Q96J92)
In short: as §1

[17] = target: PRKCE (Homo sapiens, UniProt Q02156)
In short: as §1

[18] = target: TNIK (Homo sapiens, UniProt Q9UKE5)
In short: as §1

[19] = target: FLT3(N841I) (Homo sapiens, UniProt P36888, N841I)
In short: as §1

[20] = target: SGK2 (Homo sapiens, UniProt Q9HBY8)
In short: as §1

[21] = target: CASK (Homo sapiens, UniProt O14936)
In short: as §1

[22] = target: T7, CDC2L2 (Homo sapiens, UniProt Q9UQ88)
T7 construct: gene CDK11A
In short: as §1

T7 sequence (Q9UQ88 whole entry): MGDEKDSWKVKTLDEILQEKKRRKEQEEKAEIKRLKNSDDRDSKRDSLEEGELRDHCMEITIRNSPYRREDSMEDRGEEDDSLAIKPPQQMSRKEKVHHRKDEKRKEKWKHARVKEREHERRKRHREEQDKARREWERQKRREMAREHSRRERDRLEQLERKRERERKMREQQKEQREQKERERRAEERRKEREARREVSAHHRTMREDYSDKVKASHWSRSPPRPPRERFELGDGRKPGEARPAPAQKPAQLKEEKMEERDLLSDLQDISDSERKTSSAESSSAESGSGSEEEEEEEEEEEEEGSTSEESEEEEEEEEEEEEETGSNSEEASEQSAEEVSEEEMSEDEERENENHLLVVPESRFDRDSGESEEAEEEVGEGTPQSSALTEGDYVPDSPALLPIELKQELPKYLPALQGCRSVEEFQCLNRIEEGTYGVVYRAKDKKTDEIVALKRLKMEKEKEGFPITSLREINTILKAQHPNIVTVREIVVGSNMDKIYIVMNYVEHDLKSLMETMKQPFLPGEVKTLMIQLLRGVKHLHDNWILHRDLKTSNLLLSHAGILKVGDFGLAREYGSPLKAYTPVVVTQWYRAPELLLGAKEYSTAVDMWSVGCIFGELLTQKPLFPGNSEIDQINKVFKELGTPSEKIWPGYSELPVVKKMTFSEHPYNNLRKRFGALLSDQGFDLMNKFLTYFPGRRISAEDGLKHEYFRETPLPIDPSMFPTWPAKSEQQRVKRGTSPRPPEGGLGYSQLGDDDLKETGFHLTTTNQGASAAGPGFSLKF
Chain of WNK4 (Q96J92 whole entry): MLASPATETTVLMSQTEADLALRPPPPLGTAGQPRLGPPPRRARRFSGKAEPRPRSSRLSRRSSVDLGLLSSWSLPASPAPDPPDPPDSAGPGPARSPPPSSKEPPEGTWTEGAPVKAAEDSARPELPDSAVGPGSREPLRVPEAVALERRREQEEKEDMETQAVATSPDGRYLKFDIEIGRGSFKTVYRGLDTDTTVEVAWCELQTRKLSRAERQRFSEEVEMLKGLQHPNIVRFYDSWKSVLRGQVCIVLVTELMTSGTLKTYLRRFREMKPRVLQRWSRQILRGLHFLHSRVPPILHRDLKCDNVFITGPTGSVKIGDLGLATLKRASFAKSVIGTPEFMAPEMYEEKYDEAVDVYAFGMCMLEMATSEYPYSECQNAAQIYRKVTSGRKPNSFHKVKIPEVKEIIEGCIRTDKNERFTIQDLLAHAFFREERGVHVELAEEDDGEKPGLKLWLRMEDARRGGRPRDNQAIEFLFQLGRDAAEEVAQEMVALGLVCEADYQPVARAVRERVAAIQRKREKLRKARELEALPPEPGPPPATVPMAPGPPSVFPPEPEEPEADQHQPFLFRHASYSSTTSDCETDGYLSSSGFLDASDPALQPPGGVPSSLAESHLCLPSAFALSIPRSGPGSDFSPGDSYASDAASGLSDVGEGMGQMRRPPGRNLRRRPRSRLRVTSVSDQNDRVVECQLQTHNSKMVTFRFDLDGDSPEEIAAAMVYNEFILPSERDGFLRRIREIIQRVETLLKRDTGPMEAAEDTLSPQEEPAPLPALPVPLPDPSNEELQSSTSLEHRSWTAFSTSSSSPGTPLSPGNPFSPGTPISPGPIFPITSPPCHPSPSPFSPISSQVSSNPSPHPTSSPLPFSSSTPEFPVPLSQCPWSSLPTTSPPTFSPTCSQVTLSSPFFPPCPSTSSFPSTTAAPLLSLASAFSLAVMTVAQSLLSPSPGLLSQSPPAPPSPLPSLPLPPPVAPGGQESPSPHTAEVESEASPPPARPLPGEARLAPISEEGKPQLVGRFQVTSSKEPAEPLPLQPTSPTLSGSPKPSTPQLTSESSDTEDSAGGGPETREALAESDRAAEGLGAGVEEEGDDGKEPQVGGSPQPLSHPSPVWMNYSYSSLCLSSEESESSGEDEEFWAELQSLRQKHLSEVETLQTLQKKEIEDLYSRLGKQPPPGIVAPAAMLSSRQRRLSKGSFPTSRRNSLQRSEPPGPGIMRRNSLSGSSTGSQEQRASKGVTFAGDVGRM
Chain of CSNK1A1 (P48729 whole entry): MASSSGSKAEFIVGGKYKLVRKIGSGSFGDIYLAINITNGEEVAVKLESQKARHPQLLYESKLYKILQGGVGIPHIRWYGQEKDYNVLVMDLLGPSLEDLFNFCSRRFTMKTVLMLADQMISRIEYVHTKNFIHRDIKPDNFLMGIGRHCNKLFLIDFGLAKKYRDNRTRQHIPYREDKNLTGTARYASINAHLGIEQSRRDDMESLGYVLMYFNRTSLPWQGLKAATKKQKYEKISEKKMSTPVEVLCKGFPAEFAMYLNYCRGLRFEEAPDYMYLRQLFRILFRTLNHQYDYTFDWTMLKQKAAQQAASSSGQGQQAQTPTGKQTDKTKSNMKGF
T4 sequence (Q92918 whole entry): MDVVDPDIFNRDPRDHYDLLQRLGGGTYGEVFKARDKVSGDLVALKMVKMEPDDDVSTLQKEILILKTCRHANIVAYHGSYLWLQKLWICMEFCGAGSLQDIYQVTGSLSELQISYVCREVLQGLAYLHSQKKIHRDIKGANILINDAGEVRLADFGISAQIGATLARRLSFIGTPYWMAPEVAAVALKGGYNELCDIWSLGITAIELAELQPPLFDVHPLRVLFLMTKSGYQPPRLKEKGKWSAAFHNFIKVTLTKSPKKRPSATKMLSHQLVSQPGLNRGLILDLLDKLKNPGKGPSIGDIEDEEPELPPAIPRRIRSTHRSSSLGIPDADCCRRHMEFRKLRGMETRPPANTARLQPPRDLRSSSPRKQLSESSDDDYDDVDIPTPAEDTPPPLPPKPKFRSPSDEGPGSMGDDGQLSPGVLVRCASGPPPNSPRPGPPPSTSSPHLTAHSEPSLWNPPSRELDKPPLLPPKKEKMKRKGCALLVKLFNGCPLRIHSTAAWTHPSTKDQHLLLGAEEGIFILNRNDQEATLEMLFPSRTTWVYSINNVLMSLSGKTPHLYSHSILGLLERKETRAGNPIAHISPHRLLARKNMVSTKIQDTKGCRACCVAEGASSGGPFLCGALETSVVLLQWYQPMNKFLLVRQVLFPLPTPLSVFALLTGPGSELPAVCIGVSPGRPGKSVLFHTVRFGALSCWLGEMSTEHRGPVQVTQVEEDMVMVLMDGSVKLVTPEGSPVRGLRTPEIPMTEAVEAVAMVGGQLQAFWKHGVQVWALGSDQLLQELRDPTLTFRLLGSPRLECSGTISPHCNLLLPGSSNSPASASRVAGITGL
Chain of MAP3K15 (Q6ZN16 whole entry): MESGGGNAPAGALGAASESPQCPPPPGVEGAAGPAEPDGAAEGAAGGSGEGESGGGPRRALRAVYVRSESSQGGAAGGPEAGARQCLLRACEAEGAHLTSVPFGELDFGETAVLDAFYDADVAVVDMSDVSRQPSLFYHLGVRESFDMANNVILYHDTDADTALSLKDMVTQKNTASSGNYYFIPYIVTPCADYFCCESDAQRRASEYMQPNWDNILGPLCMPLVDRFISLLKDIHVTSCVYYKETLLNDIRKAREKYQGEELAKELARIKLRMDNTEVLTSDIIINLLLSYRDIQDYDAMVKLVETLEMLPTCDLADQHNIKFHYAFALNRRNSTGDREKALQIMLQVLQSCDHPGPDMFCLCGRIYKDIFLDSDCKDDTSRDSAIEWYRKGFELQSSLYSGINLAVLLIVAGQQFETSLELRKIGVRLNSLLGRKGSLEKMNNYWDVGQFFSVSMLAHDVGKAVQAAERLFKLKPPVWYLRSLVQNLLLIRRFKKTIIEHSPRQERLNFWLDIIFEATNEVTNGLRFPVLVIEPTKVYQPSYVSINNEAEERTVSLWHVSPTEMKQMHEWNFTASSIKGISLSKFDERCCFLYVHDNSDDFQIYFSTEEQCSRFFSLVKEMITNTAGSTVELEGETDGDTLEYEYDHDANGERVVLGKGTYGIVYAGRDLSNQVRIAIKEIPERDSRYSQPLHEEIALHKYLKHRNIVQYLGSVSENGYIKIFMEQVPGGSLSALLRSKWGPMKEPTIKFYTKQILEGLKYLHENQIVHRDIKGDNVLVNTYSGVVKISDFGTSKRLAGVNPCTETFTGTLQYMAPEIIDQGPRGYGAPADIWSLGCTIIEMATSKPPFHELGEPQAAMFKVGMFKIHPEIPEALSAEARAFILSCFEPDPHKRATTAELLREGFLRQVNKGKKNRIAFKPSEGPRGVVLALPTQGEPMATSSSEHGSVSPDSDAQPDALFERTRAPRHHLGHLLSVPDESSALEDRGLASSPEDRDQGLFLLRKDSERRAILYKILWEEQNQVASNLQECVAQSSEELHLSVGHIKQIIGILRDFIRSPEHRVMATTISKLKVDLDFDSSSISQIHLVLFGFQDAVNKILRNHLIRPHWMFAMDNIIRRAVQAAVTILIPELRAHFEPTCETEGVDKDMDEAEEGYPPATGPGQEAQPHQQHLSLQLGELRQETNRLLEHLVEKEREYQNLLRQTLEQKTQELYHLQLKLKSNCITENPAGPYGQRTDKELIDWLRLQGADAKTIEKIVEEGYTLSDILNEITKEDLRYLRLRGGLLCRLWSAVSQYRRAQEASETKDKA
T1 sequence (O14733 whole entry): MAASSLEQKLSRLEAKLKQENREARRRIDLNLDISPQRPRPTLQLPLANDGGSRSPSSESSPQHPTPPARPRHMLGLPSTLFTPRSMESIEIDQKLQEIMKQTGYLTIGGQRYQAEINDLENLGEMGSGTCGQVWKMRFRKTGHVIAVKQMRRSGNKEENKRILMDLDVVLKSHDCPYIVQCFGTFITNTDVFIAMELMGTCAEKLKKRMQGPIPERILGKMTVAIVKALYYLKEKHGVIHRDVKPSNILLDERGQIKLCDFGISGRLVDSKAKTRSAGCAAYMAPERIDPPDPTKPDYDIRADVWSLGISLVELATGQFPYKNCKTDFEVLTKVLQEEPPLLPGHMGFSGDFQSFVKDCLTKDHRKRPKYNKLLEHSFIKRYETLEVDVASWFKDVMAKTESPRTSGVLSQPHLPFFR

C=C(C)[C@H]1CC=C(C)C(=O)C1 [S-carvone]
remaining binding at 100 µM [1]: 84%
remaining binding at 100 µM [2]: 81%
remaining binding at 100 µM [3]: 68%
remaining binding at 100 µM [4]: 67%
remaining binding at 100 µM [5]: 79%
remaining binding at 100 µM [6]: 87%
remaining binding at 100 µM [7]: 79%
remaining binding at 100 µM [8]: 50%
remaining binding at 100 µM [9]: 80%
remaining binding at 100 µM [10]: 60%
remaining binding at 100 µM [11]: 97%
remaining binding at 100 µM [12]: 61%
remaining binding at 100 µM [13]: 100%
remaining binding at 100 µM [14]: 75%
remaining binding at 100 µM [15]: 93%
remaining binding at 100 µM [16]: 77%
remaining binding at 100 µM [17]: 94%
remaining binding at 100 µM [18]: 84%
remaining binding at 100 µM [19]: 63%
remaining binding at 100 µM [20]: 68%
remaining binding at 100 µM [21]: 83%
remaining binding at 100 µM [22]: 82%
